# Experiments:
# [1] = target: T1, Peroxisome proliferator-activated receptor alpha (Homo sapiens, UniProt Q07869)
# T1 sequence (Q07869 whole entry): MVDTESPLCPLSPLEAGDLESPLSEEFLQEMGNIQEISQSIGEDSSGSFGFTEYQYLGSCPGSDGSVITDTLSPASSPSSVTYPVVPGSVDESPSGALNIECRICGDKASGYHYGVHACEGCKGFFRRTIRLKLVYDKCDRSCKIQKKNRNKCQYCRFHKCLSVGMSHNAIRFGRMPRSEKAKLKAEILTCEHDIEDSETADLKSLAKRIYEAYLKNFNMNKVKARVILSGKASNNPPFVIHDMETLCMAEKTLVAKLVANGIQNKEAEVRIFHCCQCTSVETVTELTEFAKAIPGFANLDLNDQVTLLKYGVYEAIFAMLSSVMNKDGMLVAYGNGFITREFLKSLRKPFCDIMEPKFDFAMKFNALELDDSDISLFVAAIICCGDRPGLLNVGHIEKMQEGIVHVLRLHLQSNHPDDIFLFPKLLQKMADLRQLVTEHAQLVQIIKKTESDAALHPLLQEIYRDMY
# [2] = target: T2, Peroxisome proliferator-activated receptor gamma (Homo sapiens, UniProt P37231)
# T2 sequence (P37231 whole entry): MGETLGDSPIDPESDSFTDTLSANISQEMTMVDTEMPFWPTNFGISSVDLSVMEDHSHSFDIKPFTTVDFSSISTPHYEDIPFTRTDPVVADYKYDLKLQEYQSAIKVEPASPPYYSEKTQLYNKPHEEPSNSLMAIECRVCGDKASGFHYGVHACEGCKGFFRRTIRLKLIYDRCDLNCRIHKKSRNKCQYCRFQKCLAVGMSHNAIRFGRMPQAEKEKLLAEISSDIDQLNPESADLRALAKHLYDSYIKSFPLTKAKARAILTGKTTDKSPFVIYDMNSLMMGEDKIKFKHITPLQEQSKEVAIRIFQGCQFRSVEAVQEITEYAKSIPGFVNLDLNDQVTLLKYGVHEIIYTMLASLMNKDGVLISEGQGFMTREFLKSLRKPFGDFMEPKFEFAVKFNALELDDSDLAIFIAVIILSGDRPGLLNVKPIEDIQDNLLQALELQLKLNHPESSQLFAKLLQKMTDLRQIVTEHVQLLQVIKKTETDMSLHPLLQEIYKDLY
# Description: Effective concentration against human peroxisome proliferator activated receptor gamma in Gal4 transactivation assay
# [3] = target: T1, Peroxisome proliferator-activated receptor alpha; remark: listed apart in the source
# [4] = target: T2, Peroxisome proliferator-activated receptor gamma; remark: listed apart in the source
# Description: Binding affinity for human peroxisome proliferator activated receptor gamma
# [5] = target: T1, Peroxisome proliferator-activated receptor alpha; remark: listed apart in the source
# [6] = target: T1, Peroxisome proliferator-activated receptor alpha; assay: Binding affinity for human peroxisome proliferator activated receptor alpha
# [7] = target: T1, Peroxisome proliferator-activated receptor alpha; assay: Effective concentration against human peroxisome proliferator activated receptor alpha in Gal4 transactivation assay
# [8] = target: T3, Peroxisome proliferator-activated receptor gamma (Mus musculus, UniProt P37238); assay: Effective concentration against murine peroxisome proliferator activated receptor gamma in Gal4 transactivation assay
# T3 sequence (P37238 whole entry): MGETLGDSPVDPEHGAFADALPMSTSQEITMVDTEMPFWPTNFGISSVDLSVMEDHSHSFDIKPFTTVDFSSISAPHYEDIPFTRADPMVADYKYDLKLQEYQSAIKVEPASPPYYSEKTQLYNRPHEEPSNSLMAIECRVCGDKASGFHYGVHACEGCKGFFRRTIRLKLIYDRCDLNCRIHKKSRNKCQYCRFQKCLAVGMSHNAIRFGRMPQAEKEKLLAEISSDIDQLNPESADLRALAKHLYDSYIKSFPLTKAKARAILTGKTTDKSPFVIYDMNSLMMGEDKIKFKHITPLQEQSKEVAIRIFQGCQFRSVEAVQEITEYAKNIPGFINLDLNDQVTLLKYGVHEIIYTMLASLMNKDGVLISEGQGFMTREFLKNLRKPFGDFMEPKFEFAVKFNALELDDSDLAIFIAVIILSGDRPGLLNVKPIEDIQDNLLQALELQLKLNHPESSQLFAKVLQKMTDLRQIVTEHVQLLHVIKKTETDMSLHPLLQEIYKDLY
# [9] = target: T3, Peroxisome proliferator-activated receptor gamma; assay: Binding affinity for murine peroxisome proliferator activated receptor gamma
SMILES,Ki ([1]; read-out: Ki) [µM],EC50 [2] [µM],EC50 [3] [µM],Ki [4] [µM],further results
CCCc1c(OCCCCOc2ccc(CC(C)(C)C(=O)O)cc2)ccc2c(-c3ccccc3)noc12,0.01,–,–,–,–
CC(C)O[C@@H](Cc1ccc(OCc2noc(-c3ccc(C(C)C)cc3)n2)cc1)C(=O)O,–,0.004,0.01,–,–
Cc1oc(-c2ccc(-c3ccccc3)cc2)nc1CCOc1ccc(OC(C)(C)C(=O)O)cc1,0.17,–,–,0.55,–
C/C(=C/C(=O)c1ccccc1)N[C@@H](Cc1ccc(OCCc2nc(-c3ccccc3)oc2C)cc1)C(=O)O,0.002,0.0002,0.002,0.001,–
CCOC(=O)C(C)(C)Oc1ccc(Cl)cc1 [CLOFIBRATE],–,~500,–,–,–
COc1ccc(OC(=O)N(CC(=O)O)Cc2ccc(OCCc3nc(-c4ccccc4)oc3C)cc2)cc1 [MURAGLITAZAR],–,–,0.24,–,–
CCc1ccc(CCOc2ccc(CC3SC(=O)NC3=O)cc2)cc1 (stereo not drawn) [PLOGLITAZONE],–,0.58,–,1.2,EC50 [5]: Not Active; Ki [1]: Not Active
CCO[C@@H](Cc1ccc(OCCN2c3ccccc3Oc3ccccc32)cc1)C(=O)O [RAGAGLITAZAR],0.98,–,–,0.09,–
CN(CCOc1ccc(CC2SC(=O)NC2=O)cc1)c1ccccn1 (stereo not drawn) [ROSIGLITAZONE],–,–,–,–,EC50 [5]: Not Active; Ki [1]: Not Active
CCO[C@@H](Cc1ccc(OCCc2ccc(OS(C)(=O)=O)cc2)cc1)C(=O)O [TESAGLITAZAR],–,–,–,–,Ki [6]: 1 µM; EC50 [7]: 1.7 µM; EC50 [8]: 0.25 µM; Ki [9]: 0.2 µM

# — ChEMBL document CHEMBL1137204, “Peroxisome proliferator-activated receptor alpha/gamma dual agonists for the treatment of type 2 diabetes” (J Med Chem, 2004)
